Results from paper PMC9385719, “Cryo-EM structures of the channelrhodopsin ChRmine in lipid nanodiscs” (Nature Communications, 2022).

Target: T1, ChRmine (Rhodomonas lens, UniProt Z9FJ57BNO3)
T1 construct: residues 1-309 of R. lens cation channelrhodopsin 1; C-terminal PreScission site-linker-sfGFP-7xHis, cleaved; expressed in Sf9; no N-terminal tag, Met1 removed, Ala2 acetylated; residues 2-285 modeled; homotrimer in MSP1E3D1 nanodiscs
T1 sequence (Z9FJ57BNO3 2-309): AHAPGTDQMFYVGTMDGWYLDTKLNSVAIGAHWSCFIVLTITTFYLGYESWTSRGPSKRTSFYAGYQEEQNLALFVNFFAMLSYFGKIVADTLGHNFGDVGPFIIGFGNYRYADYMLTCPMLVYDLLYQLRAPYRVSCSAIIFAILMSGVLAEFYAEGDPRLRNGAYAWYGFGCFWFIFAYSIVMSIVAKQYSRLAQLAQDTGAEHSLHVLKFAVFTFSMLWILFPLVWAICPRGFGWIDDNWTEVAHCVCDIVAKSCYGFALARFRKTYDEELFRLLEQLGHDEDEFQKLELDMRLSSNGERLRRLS
Assay: cryo-EM structure, […] Å, lipid nanodisc
Assay type: binding
Details: covalent; Schiff base to K257; MSP1E3D1 nanodisc with DOPE/POPS/POPC, pH 7.5; 5 µM all-trans retinal added to expression culture; small and large nanodisc forms

CC1=C(/C=C/C(C)=C/C=C/C(C)=C/C=O)C(C)(C)CCC1 [all-trans retinal]
cryo-EM structure, 2.7 Å, lipid nanodisc: (K257) on TM7 is covalently linked to a molecule of all-trans retinal through a Schiff base
